Data on 19 molecules can be found in patent US12226412B2, “Heteroaryl-ketone fused azadecalin glucocorticoid receptor modulators” (Corcept Therapeutics, Inc., priority 2012, dated 2025).

Molecules are shown by their SMILES. A value given as a limit tells only on which side of the number the result lay.

Experiment [1] deals with induction of TAT by dexamethasone in HepG2 cells. Nature of the experiment: HepG2 tyrosine aminotransferase (TAT) assay. The class given is cell-based, human. To be noted: HepG2 cells, challenge of 100 nM dexamethasone; Ki from IC50 by Cheng and Prusoff equation.
The next experiment has as its target T1, human recombinant GR (Homo sapiens, UniProt P04150).
T1 construct: purchased PanVera P2812
T1 sequence (P04150 1-777): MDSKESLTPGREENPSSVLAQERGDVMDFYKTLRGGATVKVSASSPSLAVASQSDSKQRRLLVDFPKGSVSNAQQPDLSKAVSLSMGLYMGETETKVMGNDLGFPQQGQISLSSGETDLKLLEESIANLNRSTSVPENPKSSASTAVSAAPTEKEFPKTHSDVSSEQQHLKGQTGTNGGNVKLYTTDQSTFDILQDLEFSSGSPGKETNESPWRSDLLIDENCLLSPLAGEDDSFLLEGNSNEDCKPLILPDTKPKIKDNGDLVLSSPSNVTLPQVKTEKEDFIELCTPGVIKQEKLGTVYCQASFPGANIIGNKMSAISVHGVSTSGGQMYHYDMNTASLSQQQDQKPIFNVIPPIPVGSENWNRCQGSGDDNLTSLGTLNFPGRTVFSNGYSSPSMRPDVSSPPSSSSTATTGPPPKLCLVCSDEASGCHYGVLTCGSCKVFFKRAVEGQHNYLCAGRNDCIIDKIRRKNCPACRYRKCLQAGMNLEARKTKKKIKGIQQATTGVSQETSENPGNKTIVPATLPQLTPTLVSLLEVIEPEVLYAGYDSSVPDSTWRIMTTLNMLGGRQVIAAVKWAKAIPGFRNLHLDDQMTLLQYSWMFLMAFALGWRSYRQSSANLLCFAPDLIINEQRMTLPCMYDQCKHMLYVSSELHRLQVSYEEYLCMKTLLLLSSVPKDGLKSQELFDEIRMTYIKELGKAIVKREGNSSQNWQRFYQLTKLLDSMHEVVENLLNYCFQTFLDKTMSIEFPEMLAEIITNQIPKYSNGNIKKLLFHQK
In words: Human glucocorticoid receptor (GR) fluorescence polarisation (FP) binding assay. The settings on record: human recombinant GR, fluorescence polarisation binding assay; read-out: GR binding. Summed up: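 Competition fluorescence polarisation: 0.5 nM GS Red labelled glucocorticoid and 1 nM recombinant human GR with 8-point half-log compound series, 1% DMSO, 4 h room temperature, potassium phosphate pH 7.4 buffer with molybdate, EDTA, DTT. Affinity derived from the drop in polarisation, normalised to blank wells.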
On the technique in general: Polarisation of emitted light reports the rotation of a fluorescent probe.

Regarding `CCc1ccnc(C(=O)[C@]23Cc4cnn(-c5ccc(F)cc5)c4C=C2CCN(S(=O)(=O)c2cccc(C(F)(F)F)n2)C3)c1` [Example 11AV, (R)-(4-ethylpyridin-2-yl) (1-(4-fluorophenyl)-6-((6-(trifluoromethyl)pyridin-2-yl)sulfonyl)-4,4a,5,6,7,8-hexahydro-1H-pyrazolo [3,4-g]isoquinolin-4a-yl)methanone], the figures for the Ki (in experiment [1]; at human recombinant GR) were < 20 nM and < 0.5 nM, respectively.

As to `Cc1ccnc(C(=O)[C@]23Cc4cnn(-c5ccc(F)cc5)c4C=C2CCN(S(=O)(=O)c2cccc(C(=O)O)c2)C3)c1` [Example 11AW, (R)-3-((1-(4-fluorophenyl)-4a-(4-methylpicolinoyl)-4a,5,7,8-tetrahydro-1H-pyrazolo[3,4-g]isoquinolin-6 (4H)-yl)sulfonyl)benzoic acid], the Ki in experiment [1] was ≥ 100 nM; at human recombinant GR, < 0.5 nM.

Regarding `Cc1ccnc(C(=O)[C@]23Cc4cnn(-c5ccc(F)cc5)c4C=C2CCN(S(=O)(=O)c2c(C)noc2C)C3)c1` [Example 11AX, (R)-(6-((3,5-dimethylisoxazol-4-yl)sulfonyl)-1-(4-fluorophenyl)-4,4a,5,6,7,8-hexahydro-1H-pyrazolo[3,4-g]isoquinolin-4a-yl)(4-methylpyridin-2-yl)methanone], the values for the Ki (in experiment [1]; at human recombinant GR) were 20 to 100 nM and < 0.5 nM, respectively.

Consider `CCn1cc(S(=O)(=O)N2CCC3=Cc4c(cnn4-c4ccc(F)cc4)C[C@]3(C(=O)c3ccccn3)C2)cn1` [Example 11AY, (R)-(6-((1-ethyl-1H-pyrazol-4-yl)sulfonyl)-1-(4-fluorophenyl)-4,4a,5,6,7,8-hexahydro-1H-pyrazolo[3,4-g]isoquinolin-4a-yl)(pyridin-2-yl)methanone], for which the Ki in experiment [1] was 20 to 100 nM; at human recombinant GR, < 0.5 nM.

In the case of `O=C(c1ccccn1)[C@]12Cc3cnn(-c4ccccc4)c3C=C1CCN(S(=O)(=O)c1cccc(C(F)(F)F)c1)C2` [Example 11AZ, (R)-(1-phenyl-6-((3-(trifluoromethyl)phenyl)sulfonyl)-4,4a,5,6,7,8-hexahydro-1H-pyrazolo[3,4-g]isoquinolin-4a-yl)(pyridin-2-yl)methanone], the Ki in experiment [1] is 20 to 100 nM; on human recombinant GR, < 0.5 nM.

Turning to `COc1ccc(S(=O)(=O)N2CCC3=Cc4c(cnn4-c4ccc(F)cc4)C[C@]3(C(=O)c3ccccn3)C2)cc1C` [Example 11B, (R)-(1-(4-fluorophenyl)-6-((4-methoxy-3-methylphenyl)sulfonyl)-4,4a,5,6,7,8-hexahydro-1H-pyrazolo[3,4-g]isoquinolin-4a-yl)(pyridin-2-yl)methanone], the Ki in experiment [1] was < 20 nM; at human recombinant GR, < 0.5 nM.

Regarding `Cc1ccnc(C(=O)[C@]23Cc4cnn(-c5ccc(F)cc5)c4C=C2CCN(S(=O)(=O)c2cc(C)nn2C)C3)c1` [Example 11BA, (R)-(6-((1,3-dimethyl-1H-pyrazol-5-yl)sulfonyl)-1-(4-fluorophenyl)-4,4a,5,6,7,8-hexahydro-1H-pyrazolo[3,4-g]isoquinolin-4a-yl)(4-methylpyridin-2-yl)methanone], the values for the Ki (in experiment [1]; at human recombinant GR) were < 20 nM and < 0.5 nM, respectively.

With `Cc1ccnc(C(=O)[C@]23Cc4cnn(-c5ccc(F)cc5)c4C=C2CCN(S(=O)(=O)c2ccnc(C(F)(F)F)c2)C3)c1` [Example 11BB, (R)-(1-(4-fluorophenyl)-6-((2-(trifluoromethyl)pyridin-4-yl)sulfonyl)-4,4a,5,6,7,8-hexahydro-1H-pyrazolo[3,4-g]isoquinolin-4a-yl)(4-methylpyridin-2-yl)methanone], the Ki in experiment [1] was < 20 nM; on human recombinant GR it was < 0.5 nM.

As to `Cc1ccnc(C(=O)[C@]23Cc4cnn(-c5ccc(F)cc5)c4C=C2CCN(S(=O)(=O)c2cc(C(F)(F)F)ccn2)C3)c1` [Example 11BC, (R)-(1-(4-fluorophenyl)-6-((4-(trifluoromethyl)pyridin-2-yl)sulfonyl)-4,4a,5,6,7,8-hexahydro-1H-pyrazolo[3,4-g]isoquinolin-4a-yl)(4-methylpyridin-2-yl)methanone], the Ki in experiment [1] is < 20 nM; on human recombinant GR it was < 0.5 nM.

For the molecule `Cc1ccnc(C(=O)[C@]23Cc4cnn(-c5ccc(F)cc5)c4C=C2CCN(S(=O)(=O)c2cn[nH]c2C)C3)c1` [Example 11BD, (R)-(1-(4-fluorophenyl)-6-((5-methyl-1H-pyrazol-4-yl)sulfonyl)-4,4a,5,6,7,8-hexahydro-1H-pyrazolo[3,4-g]isoquinolin-4a-yl)(4-methylpyridin-2-yl)methanone], the figures for the Ki (in experiment [1]; at human recombinant GR) were 20 to 100 nM and < 0.5 nM, respectively.

Regarding `O=C(c1ccccn1)[C@]12Cc3cnn(-c4ccc(F)cc4)c3C=C1CCN(S(=O)(=O)c1ccnc(C(F)(F)F)c1)C2` [Example 11BE, (R)-(1-(4-fluorophenyl)-6-((2-(trifluoromethyl)pyridin-4-yl)sulfonyl)-4,4a,5,6,7,8-hexahydro-1H-pyrazolo[3,4-g]isoquinolin-4a-yl)(pyridin-2-yl)methanone], the Ki in experiment [1] is 20 to 100 nM; on human recombinant GR, < 0.5 nM.

Consider `O=C(c1ccccn1)[C@]12Cc3cnn(-c4ccc(F)cc4)c3C=C1CCN(S(=O)(=O)c1ccc(Cl)c(C(F)(F)F)c1)C2` [Example 11BF, (R)-(6-((4-chloro-3-(trifluoromethyl)phenyl)sulfonyl)-1-(4-fluorophenyl)-4,4a,5,6,7,8-hexahydro-1H-pyrazolo[3,4-g]isoquinolin-4a-yl)(pyridin-2-yl)methanone], for which the Ki is 20 to 100 nM in experiment [1] and < 0.5 nM at human recombinant GR.

Turning to `Cc1ccc(S(=O)(=O)N2CCC3=Cc4c(cnn4-c4ccc(F)cc4)C[C@]3(C(=O)c3ccccn3)C2)cc1Cl` [Example 11BG, (R)-(6-((3-chloro-4-methylphenyl)sulfonyl)-1-(4-fluorophenyl)-4,4a,5,6,7,8-hexahydro-1H-pyrazolo[3,4-g]isoquinolin-4a-yl)(pyridin-2-yl)methanone], the Ki in experiment [1] was < 20 nM; at human recombinant GR, < 0.5 nM.

With `O=C(c1ccnc(N2CCCC2)c1)[C@]12Cc3cnn(-c4ccc(F)cc4)c3C=C1CCN(S(=O)(=O)c1ccc(F)c(F)c1)C2` [Example 11BH, (R)-(6-((3,4-difluorophenyl)sulfonyl)-1-(4-fluorophenyl)-4,4a,5,6,7,8-hexahydro-1H-pyrazolo[3,4-g]isoquinolin-4a-yl)(2-(pyrrolidin-1-yl)pyridin-4-yl)methanone], the Ki was ≥ 100 nM in experiment [1] and > 1 nM at human recombinant GR.

For the molecule `Cn1ccc(S(=O)(=O)N2CCC3=Cc4c(cnn4-c4ccc(F)cc4)C[C@]3(C(=O)c3cc(C(F)(F)F)ccn3)C2)n1` [Example 11BI, (R)-(1-(4-fluorophenyl)-6-((1-methyl-1H-pyrazol-3-yl)sulfonyl)-4,4a,5,6,7,8-hexahydro-1H-pyrazolo[3,4-g]isoquinolin-4a-yl)(4-(trifluoromethyl)pyridin-2-yl)methanone], the results for the Ki (in experiment [1]; at human recombinant GR) were < 20 nM and < 0.5 nM, respectively.

`Cn1ccc(S(=O)(=O)N2CCC3=Cc4c(cnn4-c4ccc(F)cc4)C[C@]3(C(=O)c3ccccn3)C2)n1` [Example 11BJ, (R)-(1-(4-fluorophenyl)-6-((1-methyl-1H-pyrazol-3-yl)sulfonyl)-4,4a,5,6,7,8-hexahydro-1H-pyrazolo[3,4-g]isoquinolin-4a-yl)(pyridin-2-yl)methanone]: the Ki in experiment [1] was 20 to 100 nM; on human recombinant GR, < 0.5 nM.

For the molecule `Cc1[nH]ncc1S(=O)(=O)N1CCC2=Cc3c(cnn3-c3ccc(F)cc3)C[C@]2(C(=O)c2cc(C(F)(F)F)ccn2)C1` [Example 11BK, (R)-(1-(4-fluorophenyl)-6-((5-methyl-1H-pyrazol-4-yl)sulfonyl)-4,4a,5,6,7,8-hexahydro-1H-pyrazolo[3,4-g]isoquinolin-4a-yl)(4-(trifluoromethyl)pyridin-2-yl)methanone], the Ki in experiment [1] is < 20 nM; at human recombinant GR it was < 0.5 nM.

Regarding `N#Cc1cccc(S(=O)(=O)N2CCC3=Cc4c(cnn4-c4ccc(F)cc4)C[C@]3(C(=O)c3cc(C(F)(F)F)ccn3)C2)c1` [Example 11BL, (R)-3-((1-(4-fluorophenyl)-4a-(4-(trifluoromethyl)picolinoyl)-4a,5,7,8-tetrahydro-1H-pyrazolo[3,4-g]isoquinolin-6 (4H)-yl)sulfonyl)benzonitrile], the Ki in experiment [1] is < 20 nM; on human recombinant GR, < 0.5 nM.

For the molecule `Cn1nccc1S(=O)(=O)N1CCC2=Cc3c(cnn3-c3ccc(F)cc3)C[C@]2(C(=O)c2cc(C(F)(F)F)ccn2)C1` [Example 11BM, (R)-(1-(4-fluorophenyl)-6-((1-methyl-1H-pyrazol-5-yl)sulfonyl)-4,4a,5,6,7,8-hexahydro-1H-pyrazolo[3,4-g]isoquinolin-4a-yl)(4-(trifluoromethyl)pyridin-2-yl)methanone], the Ki in experiment [1] is < 20 nM; at human recombinant GR it was < 0.5 nM.
